{
  "source": "patent US20240400555A1",
  "about": "(Initial Therapeutics, Inc., priority 2023, published 2024)",
  "data": [
    {"tested_on": "MV-4-11 cells", "experiment": "Cell Viability Assay in MV-4-11 Cells", "assay_type": "cell-based", "settings": "Homo sapiens, MV4-11, 72 h, MV-4-11 cells, 72 h, Cell-Titer Glo; read-out: IC50", "outline": "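Luminescent ATP read-out (CellTiter-Glo) after 72 h compound treatment of MV-4-11 leukaemia cells (7,000 per well, IMDM plus 10% FBS). Values expressed relative to DMSO control and derived by four-parameter non-linear regression.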", "units": {"IC50": "nM"}, "values": [
      {"smiles": "CC(O)c1cccc(-c2cc3c(N(C(=O)c4ccc(-n5nnc6cccnc65)cc4F)[C@@H]4CCCNC4)nccc3s2)c1", "note": "(stereo partly drawn) [Example 601, 4-(3H-[1,2,3]triazolo[4,5-b]pyridin-3-yl)-2-fluoro-N-(2-(3-(1-hydroxyethyl)phenyl)thieno[3,2-c]pyridin-4-yl)-N—((R)-piperidin-3-yl)benzamide]", "IC50": 200},
      {"smiles": "Cc1cccc2ccnc(N(C(=O)N3CCCC(CCC(=O)Nc4ccncc4)C3)[C@@H]3CCCNC3)c12", "note": "(stereo partly drawn) [Example 497, N-(8-methylisoquinolin-1-yl)-3-(3-oxo-3-(pyridin-4-ylamino)propyl)-N—((R)-piperidin-3-yl)piperidine-1-carboxamide]", "IC50": 2000},
      {"smiles": "COc1cc(C)c2c(N(C(=O)c3ccc(-c4cn(C)nn4)cc3F)[C@@H]3CCCNC3)nccc2c1", "note": "[Example 619, (R)-2-fluoro-N-(6-methoxy-8-methylisoquinolin-1-yl)-4-(1-methyl-1H-1,2,3-triazol-4-yl)-N-(piperidin-3-yl)benzamide]", "IC50": 38},
      {"smiles": "CNC(=O)C#Cc1cc2c(N(C(=O)c3ccc(-c4cn(C)nn4)cc3F)[C@@H]3CCCNC3)nccc2s1", "note": "[Example 550, 2-fluoro-N-[2-[3-(methylamino)-3-oxo-prop-1-ynyl]thieno[3,2-c]pyridin-4-yl]-4-(1-methyltriazol-4-yl)-N-[(3R)-3-piperidyl] benzamide]", "IC50": "> 6000"},
      {"smiles": "COCc1nnc(-c2ccc(C(=O)N(c3nccc4scc(C)c34)[C@@H]3CCCNC3)cc2)s1", "note": "[Example 875, 4-[5-(methoxymethyl)-1,3,4-thiadiazol-2-yl]-N-(3-methylthieno[3,2-c]pyridin-4-yl)-N-[(3R)-3-piperidyl]benzamide]", "IC50": 86},
      {"smiles": "Cc1cccc2ccnc(N(C(=O)c3ccc(Nc4nccc(-n5cccn5)n4)cc3F)[C@@H]3CCCNC3)c12", "note": "[Example 723, (R)-4-((4-(1H-pyrazol-1-yl)pyrimidin-2-yl)amino)-2-fluoro-N-(8-methylisoquinolin-1-yl)-N-(piperidin-3-yl)benzamide]", "IC50": 81},
      {"smiles": "Cc1cn(-c2ccc(C(=O)N(c3nccc4cc(Cl)cc(C)c34)[C@@H]3CCCNC3)c(F)c2)nn1", "note": "[Example 691, (R)—N-(6-chloro-8-methylisoquinolin-1-yl)-2-fluoro-4-(4-methyl-1H-1,2,3-triazol-1-yl)-N-(piperidin-3-yl)benzamide]", "IC50": 110},
      {"smiles": "Cc1cccc2ccnc(N(C(=O)c3ccc(Nc4nccc(C(N)=O)n4)cc3F)[C@@H]3CCCNC3)c12", "note": "[Example 402, (R)-2-((3-fluoro-4-((8-methylisoquinolin-1-yl)(piperidin-3-yl)carbamoyl)phenyl)amino)pyrimidine-4-carboxamide]", "IC50": 290},
      {"smiles": "Cc1cccc2ccnc(N(C(=O)c3cccc(C#CCCN)c3)[C@@H]3CCCNC3)c12", "note": "[Example 515, (R)-3-(4-aminobut-1-yn-1-yl)-N-(8-methylisoquinolin-1-yl)-N-(piperidin-3-yl)benzamide]", "IC50": 2100},
      {"smiles": "Cc1cccc2ccnc(N(C(=O)c3ccc(Nc4nccc(NCc5ccccn5)n4)cc3F)[C@@H]3CCCNC3)c12", "note": "[Example 695, (R)-2-fluoro-N-(8-methylisoquinolin-1-yl)-N-(piperidin-3-yl)-4-((4-((pyridin-2-ylmethyl)amino)pyrimidin-2-yl)amino)benzamide]", "IC50": 130},
      {"smiles": "Cc1nc(-c2ccc3c(N(C(=O)c4ccc(-n5nnc6cccnc65)cc4F)[C@@H]4CCCNC4)nccc3c2)cs1", "note": "[Example 575, (R)-4-(3H-[1,2,3]triazolo[4,5-b]pyridin-3-yl)-2-fluoro-N-(6-(2-methylthiazol-4-yl)isoquinolin-1-yl)-N-(piperidin-3-yl)benzamide]", "IC50": 150},
      {"smiles": "Cc1cccc2ccnc(N(C(=O)c3ccc(Nc4nccc(N5CCC(=O)C5)n4)cc3F)[C@@H]3CCCNC3)c12", "note": "[Example 947, (R)-2-fluoro-N-(8-methylisoquinolin-1-yl)-4-((4-(3-oxopyrrolidin-1-yl)pyrimidin-2-yl)amino)-N-(piperidin-3-yl)benzamide]", "IC50": 35}
    ]}
  ]
}
